Patent US9555135B2, “Cobalt-based MRI contrast agent and imaging system” (BOARD OF REGENTS, THE UNIVERSITY OF TEXAS SYSTEM, priority 2011, dated 2017)

What was measured:
androgen receptor = androgen receptor (Homo sapiens, UniProt P10275); conditions: concentration; cited from earlier work
[1] = Relaxivity measurements on 1.5-T clinical MRI scanner; format: physicochemical
Experimental: All studies were performed on a 1.5-T clinical MRI scanner (Excite HD, GE Healthcare Technologies, Waukesha, Wis.) equipped with a high-performance gradient hardware package (Cardiac Resonance Module) and multichannel, fast-receiver hardware. The maximal achievable slew rate was 120 mT/m/s, maximal amplitude was 23 mT/m, and receiver bandwidth was 500 kHz. For relaxation measurements, the samples were placed in a room temperature water bath and imaged using a quadrature knee coil. T1-weighted measurements used an inversion recovery spin-echo technique (repetition time [TR]/[…] [TE], 5,000 ms/10 ms; inversion time, 50-4,000 ms). The T2-weighted measurements used a spin echo sequence (TR, 5,000 ms; TE, 20-1,000 ms). T2*-weighted measurements used a multi-echo, fast, gradient echo acquisition (TR, 600 ms; TE, 2-57 ms, with an echo spacing of 3.3 ms). All imaging data were analyzed using in-house software written in MATLAB (MathWorks, Natick, Mass.). The MRI sequences used for the ex vivo experiments have previously been described (see, Shetty, A. M., et al., Journal of Magnetic Resonance Imaging, Vol. 26, pp. 1672-1677 (2007)) and used a high-resolution, three-dimensional, spoiled gradient recalled echo acquisition (TR/TE, 15.6 ms/2.5 ms; flip angle, 60°; voxel size, 0.4×0.4×0.8 mm, receiver bandwidth, 488.3 Hz/pixel). The large flip angle was used to accentuate the signal from the ECAMs (with lower T1-weighted relaxation times) against the background. The high bandwidth and short echo time were chosen to minimize susceptibility artifacts in the region of the titanium markers.
Relaxivity measurements were obtained using the slope of the weighted least-squares regression of the relaxation rate versus concentration. […] The ratio of the relaxivities were >1 (r2/r1=1.21±0.29), which is consistent with T1-weighted positive contrast agents.

[2] = Pharmacokinetic arm: cobalt disposition in plasma, tissues, urine and feces after intraprostatic CoCl2-NAC injection, total cobalt by ICP; format: in vivo, rat
Experimental: (§1) A toxicity and pharmacokinetic study of intraprostatically-administered cobalt dichloride-N-acetyl cysteine (CoCl2-NAC) was conducted in a rat model by the Pharmaceutical Development Center in the Department of Veterinary Medicine and Surgery (DVMS) facilities, U.T.M.D. Anderson Cancer Center, (Houston, Tex.). CoCl2-NAC is a novel MRI marker for prostate brachytherapy under development for use in localization of implanted radioactive seeds under MRI. […] The purpose of this study was to evaluate the distribution and potential toxicity of Co-NAC systemic exposure secondary to potential leakage from in-situ rupture of the Co-NAC-ECAMs in a male rat model.
The volume of CoCl2-NAC injected (9 μl) was predetermined on the assumption of 80-120 seeds leaking into the human prostate following implantation and scaling to a 150 gram male rat model. Cobalt disposition in plasma and tissues and organ toxicity were evaluated. For the pharmacokinetic arm, 60 male rats (20/group) were assigned to two dose groups and a vehicle control group and administered 1% (low concentration) and 10% (high concentration) CoCl2-NAC or vehicle control as an injection into the prostate. Following dosing, one cohort of 5 animals from each dose-level was sacrificed at 5, 30, and 60 minutes and 6 hours following the end of drug administration. Specific tissues (spleen, heart, brain, prostate, lung, kidney, liver, gut) from all animals were harvested, blotted, and weighed. An additional 3 animals were administered the high concentration and were maintained individually in metabolic cages. Urine and feces were collected at the end of 60 min, 6 and 24 hr intervals on the day prior to dosing and post dosing the following day. All samples were analyzed for total cobalt content by inductively-coupled plasma (ICP) analysis. For the toxicity arm, 30 male rats (10/group) were assigned to two dose groups and a vehicle control group and administered 1% and 10% CoCl2-NAC or vehicle control injected into the prostate. […]

[3] = Toxicity arm: single intraprostatic CoCl2-NAC injection, clinical pathology, gross and microscopic pathology; format: in vivo, rat
Experimental: as §1
The volume of CoCl2-NAC injected (9 μl) was predetermined on the assumption of 80-120 seeds leaking into the human prostate following implantation and scaling to a 150 gram male rat model. Cobalt disposition in plasma and tissues and organ toxicity were evaluated. For the pharmacokinetic arm, 60 male rats (20/group) were assigned to two dose groups and a vehicle control group and administered 1% (low concentration) and 10% (high concentration) CoCl2-NAC or vehicle control as an injection into the prostate. Following dosing, one cohort of 5 animals from each dose-level was sacrificed at 5, 30, and 60 minutes and 6 hours following the end of drug administration. Specific tissues (spleen, heart, brain, prostate, lung, kidney, liver, gut) from all animals were harvested, blotted, and weighed. An additional 3 animals were administered the high concentration and were maintained individually in metabolic cages. Urine and feces were collected at the end of 60 min, 6 and 24 hr intervals on the day prior to dosing and post dosing the following day. All samples were analyzed for total cobalt content by inductively-coupled plasma (ICP) analysis. For the toxicity arm, 30 male rats (10/group) were assigned to two dose groups and a vehicle control group and administered 1% and 10% CoCl2-NAC or vehicle control injected into the prostate. Groups of animals were sacrificed and necropsied on Study Days 1 (24 hrs) and 14 and blood and tissues collected for evaluation of clinical pathology and organ toxicity.

[4] = T1-weighted MRI visualization of contrast agent in seeds in agarose phantom
Experimental: Initially, the titanium and acrylic seeds were custom designed to have an outer and inner diameter of 3 mm and 1.5 mm and an outer length and inner hollow length of 4.5 mm and 3.5 mm, respectively. After injection of the cobalt-chloride complex contrast (CoCl2-NAC) agent into the manufactured seeds, MRI was performed on the seeds and strand-like combinations. For the canine prostate experiments, standard nonradioactive titanium seeds were incorporated into a synthesized strand, with acrylic and glass tubes cut with an outer diameter of 0.8 mm and length of 5.5 mm, injected with the CoCl2-NAC agent ([…]), and closed on the ends with two polymer taps.
All studies involving animals or animal tissues were performed under an Institutional Animal Care and Use Committee-approved protocol. For this experiment, after completion of another investigator's in vivo experiments, a canine prostate was excised at necropsy, placed in normal saline, and fixed in agarose gel (10% by weight, Type-A, Sigma-Aldrich, St. Louis, Mo.). The ECAMs were subsequently inserted into the prostate and imaged using MRI. Similarly, the ECAMs were inserted into an in-house-manufactured agarose phantom for direct visualization. The signal intensities of the agarose and prostatic tissue were similar on T1 weighted MRI, allowing substantial preliminary assessment of the relative contrast of the ECAMs without a tissue-based phantom. 1.5-T MRI T1-weighted sequences for imaging marker experiments.
All studies were performed on a 1.5-T clinical MRI scanner (Excite HD, GE Healthcare Technologies, Waukesha, Wis.) equipped with a high-performance gradient hardware package (Cardiac Resonance Module) and multichannel, fast-receiver hardware. The maximal achievable slew rate was 120 mT/m/s, maximal amplitude was 23 mT/m, and receiver bandwidth was 500 kHz. For relaxation measurements, the samples were placed in a room temperature water bath and imaged using a quadrature knee coil. T1-weighted measurements used an inversion recovery spin-echo technique (repetition time [TR]/[…] [TE], 5,000 ms/10 ms; inversion time, 50-4,000 ms). The T2-weighted measurements used a spin echo sequence (TR, 5,000 ms; TE, 20-1,000 ms). T2*-weighted measurements used a multi-echo, fast, gradient echo acquisition (TR, 600 ms; TE, 2-57 ms, with an echo spacing of 3.3 ms). All imaging data were analyzed using in-house software written in MATLAB (MathWorks, Natick, Mass.). […]

Chain of androgen receptor (P10275 whole entry, species assumed): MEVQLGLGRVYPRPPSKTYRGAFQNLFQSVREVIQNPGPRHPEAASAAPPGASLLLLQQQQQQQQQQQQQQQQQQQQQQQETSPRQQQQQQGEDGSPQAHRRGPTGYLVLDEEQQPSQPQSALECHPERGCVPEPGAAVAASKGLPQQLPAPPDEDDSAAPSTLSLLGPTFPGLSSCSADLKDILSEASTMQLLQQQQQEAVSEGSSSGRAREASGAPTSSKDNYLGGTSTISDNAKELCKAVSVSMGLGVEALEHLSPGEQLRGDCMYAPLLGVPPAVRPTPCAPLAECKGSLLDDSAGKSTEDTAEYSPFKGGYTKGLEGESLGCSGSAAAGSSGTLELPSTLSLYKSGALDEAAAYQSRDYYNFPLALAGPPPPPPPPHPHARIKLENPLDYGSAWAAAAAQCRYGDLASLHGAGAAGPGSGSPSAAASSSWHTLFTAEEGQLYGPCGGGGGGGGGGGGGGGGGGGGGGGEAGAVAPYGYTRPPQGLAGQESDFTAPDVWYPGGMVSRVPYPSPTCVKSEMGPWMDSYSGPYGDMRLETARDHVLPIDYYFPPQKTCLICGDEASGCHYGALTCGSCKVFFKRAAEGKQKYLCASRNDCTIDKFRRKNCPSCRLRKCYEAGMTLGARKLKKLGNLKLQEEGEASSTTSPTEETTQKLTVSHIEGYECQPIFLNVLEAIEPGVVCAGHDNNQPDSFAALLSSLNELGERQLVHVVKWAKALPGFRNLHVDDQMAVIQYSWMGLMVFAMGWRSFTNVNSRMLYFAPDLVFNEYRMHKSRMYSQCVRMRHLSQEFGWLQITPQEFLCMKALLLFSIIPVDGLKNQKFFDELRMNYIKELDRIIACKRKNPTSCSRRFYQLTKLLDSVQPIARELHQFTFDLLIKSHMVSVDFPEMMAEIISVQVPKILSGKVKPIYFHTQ

## CC(C)(O)C(=O)Nc1ccc([N+](=O)[O-])c(C(F)(F)F)c1 [hydroxyflutamide]
Androgen receptor
  effect on transcriptional activity of androgen receptor: enhance the transcriptional activity

## CC(=O)N[C@@H](CS)C(=O)O.[Cl][Co][Cl] [CoCl2-NAC, cobalt-dichloride-N-acetyl cysteine]
[1]
  ratio of the relaxivities r2/r1: 1.21±0.29
[1]; room temperature water bath
  spin-lattice relaxivity (r1): 0.093 ± 0.022 mM⁻¹ s⁻¹
  spin-spin relaxivity (r2): 0.105 ± 0.01 mM⁻¹ s⁻¹
[2]; high dose group (10%), 4 of 5 animals
  peri-prostatic cobalt concentration by 60 minutes: not quantifiable
[2]; low dose group (1%)
  cobalt in kidney tissue: No cobalt was measurable
  cobalt in plasma: no measurable cobalt
[3]; 1% and 10% CoCl2-NAC, Study Days 1 and 14
  alterations in group means of hematological or clinical chemistry parameters: No toxicologically-important dose-related alterations
[3]; 1% and 10% CoCl2-NAC, any of the tested dose levels
  microscopic examination (histopathology): no histopathologic lesions
[3]; 1% and 10% CoCl2-NAC, intraprostatic, male rat
  test article-related morbidity or mortality: No test article-related morbidity or mortality
[3]; single intra-prostatic administration, male rat, highest dose tested
  no-observed-adverse-effect-level (NOAEL): 10 % CoCl2-NAC solution
[3]; toxicology arm, 1% and 10% CoCl2-NAC
  test article-related adverse clinical signs: No test article-related adverse clinical signs
[4]; 0.5-5 μL of aqueous solution (0.3-10 wt. %), phantom, 1.5-T MRI
  visualization of acrylic and glass hollow seeds containing the agent: well visualized
[4]; T1-weighted MRI, phantom
  visualization inside the titanium seed: could not be visualized
[4]; concentrations of 0.5-10%, in phantom
  signal on T1-weighted MRI inside polymer seeds: increased signal
[4]; in phantom
  signal on three-dimensional T1-weighted spoiled gradient recalled acquisition, compared with the various agents tested: highest signal
